Measured values taken from US8975289B2, “Benzyl aralkyl ether compounds, method for preparing same, intermediate compounds, use of said compounds, method for treatment and/or prevention, pharmaceutical composition and medicament containing same” (priority 2009, dated 2015).
Values after ≈ are worked out from the molar mass of the structure shown.

Columns and labels:
Type in all cases: cell-based
[1] = system: Staphylococcus aureus 6538; experiment: Broth microdilution MIC (M7-A6), bacteria, strain XVIII; conditions: strain XVIII 6538, 24 hours incubation
Description: (§1) For the experiments of the present invention (i) yeast strains obtained from clinical isolates and laboratory isolates, and (ii) bacterial strains obtained from laboratory isolates were used, as described in Table 5 as follows. […] The compounds were dissolved in dimethyl sulfoxide (DMSO) to match the final concentration of the compound equal to or less than 1%. The methodology used to test the sensitivity of the agent was broth microdilution according to the method described in Standard M7-A6 (Methodology of sensitivity tests to antimicrobial agents by dilution for bacteria with aerobic growth-6th Edition: NCCLS, volume 23, No. 2, USA, 2003), as follows. […] Then the suspensions were diluted in Mueller Hinton culture medium to a final concentration of 5×10^4CFU/mL. The diluted suspensions were inoculated in 0.1 mL in duplicates in […] plates. The procedure was performed in a laminar flow. […] Incubation of fungi with these compounds was carried out for 24 hours at a temperature of 30 to 35° C. […] We have agreed in this experiment that the turbid medium is the result of microbial growth and the presence of deposit and a clear medium represents the absence of microbial growth. The minimum inhibitory concentration (MIC) was defined as the lowest tested drug concentration that prevents any degree of bacterial growth.

[2] = system: Candida glabrata 2001; experiment: Broth microdilution MIC (M27-A2), yeast, strain XVI; conditions: strain XVI 2001, 48 hours incubation
Description: (§2) For the experiments of the present invention (i) yeast strains obtained from clinical isolates and laboratory isolates, and (ii) bacterial strains obtained from laboratory isolates were used, as described in Table 5 as follows. The yeast strains were grown in culture medium Sabouraud Dextrose Agar maintained at a temperature of 35° C. for 48 hours. […] The compounds were dissolved in dimethyl sulfoxide (DMSO) to match the final concentration of the compound equal to or less than 1%. The methodology used to test the sensitivity of the agent was broth microdilution according to the method described in Standard M27-A2 (Reference method for broth dilution tests to determine the sensitivity of yeasts to antifungal therapy-second edition, NCCLS, volume 22 number 15, USA, 2002) as follows. […] Then the suspensions were diluted in culture medium RPMI-1640 (buffered with MOPS 0.165 mol/l) at a final concentration of 50 to 2500 CFU/mL. The diluted suspensions were inoculated in duplicate in a 96-well plate. The procedure was performed in a laminar flow. […] The incubation of fungi with these compounds was carried out for 48 hours at temperature of 30 to 35° C. […] We have agreed in this experiment that the turbid medium is the result of microbial growth and the presence of deposit and a clear medium represents the absence of microbial growth. The minimum inhibitory concentration (MIC) was defined as the lowest tested drug concentration that prevents any degree of […] growth.

[3] = system: Candida parapsilosis 22019; experiment: Broth microdilution MIC (M27-A2), yeast, strain XV; conditions: strain XV 22019, 48 hours incubation
Description: as §2

[4] = system: Staphylococcus epidermidis 12228; experiment: Broth microdilution MIC (M7-A6), bacteria, strain XVII; conditions: strain XVII 12228, 24 hours incubation
Description: as §1

[5] = system: Candida albicans 10231; experiment: Broth microdilution MIC (M27-A2), yeast, strain XIV; conditions: strain XIV 10231, 48 hours incubation
Description: as §2

[6] = system: three different species of yeast and two distinct species of bacteria; experiment: Growth inhibition of the yeast and bacteria strains of Table 5, summary
Description: For the experiments of the present invention (i) yeast strains obtained from clinical isolates and laboratory isolates, and (ii) bacterial strains obtained from laboratory isolates were used, as described in Table 5 as follows.
The yeast strains were grown in culture medium Sabouraud Dextrose Agar maintained at a temperature of 35° C. for 48 hours.
The bacterial strains were grown in culture medium Triptic Soy Agar at 35° C. for two to six hours (or until the turbidity of a McFarland standard solution equal to 0.5). 5.2 Mounting of Preparations and Test For the experiments, compound 1-[2-(2,4-dichlorophenyl)-2-{[4-(trifluoromethyl)benzyl]oxy}ethyl]-1H-imidazole (BL-123) in the form of its nitrate salt, 1-[2-(2,4-dichlorophenyl)]-2-({4-[(2-phenyl)-2H-tetrazole]benzyl}oxy)ethyl]-1H-imidazole (BL-137), and miconazole nitrate were used. The compounds were dissolved in dimethyl sulfoxide (DMSO) to match the final concentration of the compound equal to or less than 1%.
The methodology used to test the sensitivity of the agent was broth microdilution according to the method described in Standard M27-A2 (Reference method for broth dilution tests to determine the sensitivity of yeasts to antifungal therapy-second edition, NCCLS, volume 22 number 15, USA, 2002) as follows.
The yeast strains were grown according to item 5.1.a to obtain a culture containing between 1×10^6 and 5×10^6 CFU/mL. […]

Clc1ccc(C(Cn2ccnc2)OCc2ccc(-c3nnn(-c4ccccc4)n3)cc2)c(Cl)c1 (stereo not drawn) [BL-137]
MIC [1]: 128.0 µg/mL (≈ 260 µM) | MIC [2]: 512.0 µg/mL (≈ 1040 µM) | MIC [3]: 512.0 µg/mL (≈ 1040 µM) | MIC [4]: 128.0 µg/mL (≈ 260 µM) | MIC [5]: 512.0 µg/mL (≈ 1040 µM) | Inhibitory effect on growth (in words) [6]: exert an inhibitory effect on the growth
